These results are taken from PubChem BioAssay AID330 (DTP/NCI, 2004).

In this test the test system is P388 leukemia ip, CD2F1 mice, survival T/C. Description: NCI In Vivo Anticancer Drug Screen. Data for tumor model P388 Leukemia (intraperitoneal) in CD2F1 (CDF1) mice. Particulars: endpoint: median survival time, higher = longer survival. A digest of the protocol:
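Mice carrying the transplanted tumor received test compound or vehicle. Survival was recorded in each group, and the value is the treated-group measurement divided by that of the vehicle-treated control group.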

The mark [1] stands for this setting: dose: 60.0 mg/kg/injection, schedule: Q01DX005 (ip), vehicle: Klucel (hydroxypropylcellulose) (HPC).
The mark [2] stands for this setting: dose: 120.0 mg/kg/injection, schedule: Q01DX005 (ip), vehicle: Klucel (hydroxypropylcellulose) (HPC).
Setting [3] is: dose: 240.0 mg/kg/injection, schedule: Q01DX005 (ip), vehicle: Klucel (hydroxypropylcellulose) (HPC).
The mark [4] stands for this setting: dose: 60.0 mg/kg/injection, schedule: Q01DX005 (ip), vehicle: saline with Tween-80.
The mark [5] stands for this setting: dose: 120.0 mg/kg/injection, schedule: Q01DX005 (ip), vehicle: saline with Tween-80.
Setting [6] is: dose: 240.0 mg/kg/injection, schedule: Q01DX005 (ip), vehicle: saline with Tween-80.
[7] abbreviates: dose: 25.0 mg/kg/injection, schedule: Q01DX009 (ip), vehicle: Klucel (hydroxypropylcellulose) (HPC).
[8] abbreviates: dose: 50.0 mg/kg/injection, schedule: Q01DX009 (ip), vehicle: Klucel (hydroxypropylcellulose) (HPC).
The mark [9] stands for this setting: dose: 100.0 mg/kg/injection, schedule: Q01DX009 (ip), vehicle: Klucel (hydroxypropylcellulose) (HPC).
[10] abbreviates: dose: 200.0 mg/kg/injection, schedule: Q01DX009 (ip), vehicle: Klucel (hydroxypropylcellulose) (HPC).
The mark [11] stands for this setting: dose: 50.0 mg/kg/injection, schedule: Q01DX005 (ip), vehicle: saline with Tween-80.
[12] abbreviates: dose: 100.0 mg/kg/injection, schedule: Q01DX005 (ip), vehicle: saline with Tween-80.

Inconclusive results and toxic doses are left out.

For `COc1ccc(S(=O)(=O)N/N=C/C(=O)OCOC(=O)C(C)(C)C)cc1`, the T/C is 111 % of control (dose: 5.0 mg/kg/injection, schedule: Q01DX005 (ip), vehicle: other); 116 % of control (dose: 5.0 mg/kg/injection, schedule: Q01DX005 (ip), vehicle: saline + Tween-80 + alcohol); 111 % of control (dose: 10.0 mg/kg/injection, schedule: Q01DX005 (ip), vehicle: saline + Tween-80 + alcohol); 119 % of control (dose: 12.5 mg/kg/injection, schedule: Q01DX005 (ip), vehicle: saline + Tween-80 + alcohol); 111 % of control (dose: 25.0 mg/kg/injection, schedule: Q01DX005 (ip), vehicle: saline + Tween-80 + alcohol).

Regarding `C[C@H]1CC(=O)SC1=O`, the T/C is 100 % of control (dose: 25.0 mg/kg/injection, schedule: Q04DX002 (ip), vehicle: saline) and 93 % of control (dose: 50.0 mg/kg/injection, schedule: Q04DX002 (ip), vehicle: saline).

In the case of `Cn1cnc([N+](=O)[O-])c1Sc1cn(C2CC(O)C(CO)O2)c(=O)[nH]c1=O` (centres undefined), the T/C is, setting by setting: under setting [1], 101 % of control; under setting [2], 102 % of control; under setting [3], 107 % of control.

As for `CC(C)(C)SS(=O)(=O)C(C)(C)C`, the T/C under setting [1] was 103 % of control, the T/C under setting [2] was 106 % of control and the T/C under setting [3] was 105 % of control.

As for `O=Cc1nnc(-c2ccccc2)o1`, the T/C by setting is: (dose: 12.5 mg/kg/injection, schedule: Q01DX009 (ip), vehicle: DMSO) 90 % of control; (dose: 25.0 mg/kg/injection, schedule: Q01DX009 (ip), vehicle: DMSO) 98 % of control; (dose: 50.0 mg/kg/injection, schedule: Q01DX009 (ip), vehicle: DMSO) 93 % of control.

In the case of `CC(C)C[N+]1(Cc2ccc(Cl)cc2Cl)CCOCC1`, the T/C is 101 % of control (dose: 100.0 mg/kg/injection, schedule: Q04DX003 (ip), vehicle: saline) and 93 % of control (dose: 200.0 mg/kg/injection, schedule: Q04DX003 (ip), vehicle: saline).

Turning to `CC1SC(=S)N(c2ccccc2)C1=O` (centres undefined), the T/C was 104 % of control (dose: 50.0 mg/kg/injection, schedule: Q01DX009 (ip), vehicle: saline with Tween-80); 112 % of control (dose: 50.0 mg/kg/injection, schedule: Q04DX003 (ip), vehicle: saline with Tween-80); 100 % of control (dose: 100.0 mg/kg/injection, schedule: Q01DX009 (ip), vehicle: saline with Tween-80); 108 % of control (dose: 100.0 mg/kg/injection, schedule: Q04DX003 (ip), vehicle: saline with Tween-80); 109 % of control (dose: 200.0 mg/kg/injection, schedule: Q01DX009 (ip), vehicle: saline with Tween-80); 108 % of control (dose: 200.0 mg/kg/injection, schedule: Q04DX003 (ip), vehicle: saline with Tween-80).

For the compound `COc1cccc2cc(-c3c[nH]c4ccccc34)c(=O)oc12`, the T/C was 105 % of control under setting [4], 98 % of control under setting [5] and 95 % of control under setting [6].

Take `CCC(=O)NC(Cc1ccsc1)C(=O)O` (centres undefined): the T/C runs as follows: (dose: 12.5 mg/kg/injection, schedule: Q01DX009 (ip), vehicle: saline) 103 % of control; (dose: 25.0 mg/kg/injection, schedule: Q01DX009 (ip), vehicle: saline) 107 % of control; (dose: 50.0 mg/kg/injection, schedule: Q01DX009 (ip), vehicle: saline) 98 % of control; (dose: 100.0 mg/kg/injection, schedule: Q01DX009 (ip), vehicle: saline) 90 % of control; (dose: 200.0 mg/kg/injection, schedule: Q01DX009 (ip), vehicle: saline) 90 % of control.

For the compound `[Ni+2].[O-]c1ccccc1C=NCCCCCCN=Cc1ccccc1[O-]`, the T/C runs as follows: (dose: 50.0 mg/kg/injection, schedule: Q04DX002 (ip), vehicle: saline with Tween-80) 94 % of control; (dose: 100.0 mg/kg/injection, schedule: Q04DX002 (ip), vehicle: saline with Tween-80) 93 % of control; (dose: 200.0 mg/kg/injection, schedule: Q04DX002 (ip), vehicle: saline with Tween-80) 93 % of control.

As for `NC(CCC(N)C(=O)O)C(=O)O` (centres undefined), the T/C under setting [7] was 97 % of control, the T/C under setting [8] was 93 % of control, the T/C under setting [9] is 87 % of control and the T/C under setting [10] was 86 % of control.

Take `COC(=O)C1=C(C(=O)OC)P2(c3ccccc3)(c3ccccc3)N(C)C(=S)N2C1(c1ccccc1)c1ccccc1`: the T/C (dose: 50.0 mg/kg/injection, schedule: Q01DX005 (ip), vehicle: Klucel (hydroxypropylcellulose) (HPC)) was 103 % of control; the T/C (dose: 100.0 mg/kg/injection, schedule: Q01DX005 (ip), vehicle: Klucel (hydroxypropylcellulose) (HPC)) was 105 % of control; the T/C (dose: 200.0 mg/kg/injection, schedule: Q01DX005 (ip), vehicle: Klucel (hydroxypropylcellulose) (HPC)) was 90 % of control.

`O=C(Nc1cccc2c(NC(=O)N3CCCCC3)cccc12)N1CCCCC1`: the T/C reads like this: (dose: 15.0 mg/kg/injection, schedule: Q01DX005 (ip), vehicle: saline with Tween-80) 94 % of control; (dose: 30.0 mg/kg/injection, schedule: Q01DX005 (ip), vehicle: saline with Tween-80) 93 % of control; under setting [5], 86 % of control; under setting [6], 100 % of control.

Regarding `CCn1c2ccc([N+](=O)[O-])cc2c2c([N+](=O)[O-])c(NC(C)=O)ccc21`, the T/C runs as follows: under setting [11], 93 % of control; under setting [12], 95 % of control; (dose: 200.0 mg/kg/injection, schedule: Q01DX005 (ip), vehicle: saline with Tween-80) 92 % of control.

Consider `Cc1ccc([N+](=O)[O-])cc1NC(=O)NNC(=O)CNC(=O)NCc1ccco1`, for which the T/C is 93 % of control under setting [4], 89 % of control under setting [5] and 89 % of control under setting [6].

With `CNC(=O)OCc1c(COC(=O)NC)c(-c2ccccc2)n(C)c1-c1ccccc1`, the T/C was 164 % of control (dose: 10.0 mg/kg/injection, schedule: Q01DX009 (ip), vehicle: distilled water + Tween-80); 181 % of control (dose: 12.5 mg/kg/injection, schedule: Q01DX009 (ip), vehicle: distilled water + Tween-80); 205 % of control (dose: 20.0 mg/kg/injection, schedule: Q01DX009 (ip), vehicle: distilled water + Tween-80); 124 % of control (dose: 40.0 mg/kg/injection, schedule: Q01DX009 (ip), vehicle: distilled water + Tween-80).

Take `O=c1[nH]nc(/C=C/C=C/c2ccccc2)c(=O)[nH]1`: the T/C by setting is: (dose: 100.0 mg/kg/injection, schedule: Q01DX001 (ip), vehicle: saline) 97 % of control; (dose: 200.0 mg/kg/injection, schedule: Q01DX001 (ip), vehicle: saline) 101 % of control; (dose: 400.0 mg/kg/injection, schedule: Q01DX001 (ip), vehicle: saline) 90 % of control.

Take `O=C1N(CCc2ccccc2)CCCS1(=O)=O`: the T/C runs as follows: under setting [11], 115 % of control; under setting [12], 117 % of control.

As to `O=C(Nc1cccc2c1C(O)c1ccccc1-2)C(Cl)Cl` (centres undefined), the T/C under setting [4] was 97 % of control, the T/C under setting [5] was 98 % of control and the T/C under setting [6] was 104 % of control.

Turning to `COC1/C=C\OC2(C)Oc3c(C)c(O)c4c(O)c(c5c(c4c3C2=O)OC[N+](C)=C5)NC(=O)/C(C)=C\C=C\C(C)C(O)C(C)C(O)C(C)C(OC(C)=O)C1C` (centres undefined), the T/C is 92 % of control under setting [7], 97 % of control under setting [8], 95 % of control under setting [9] and 95 % of control under setting [10].

As for `COc1cccc2c1C(=O)c1c(O)c3c(c(O)c1C2=O)C[C@@](O)(C(=O)COC(=O)c1ccccc1)C[C@@H]3OC1CC(N)C(O)C(C)O1` (some centres undefined), the T/C (dose: 0.5 mg/kg/injection, schedule: Q01DX009 (ip), vehicle: saline sonified) is 168 % of control; the T/C (dose: 1.0 mg/kg/injection, schedule: Q01DX009 (ip), vehicle: saline sonified) was 186 % of control; the T/C (dose: 2.0 mg/kg/injection, schedule: Q01DX009 (ip), vehicle: saline sonified) was 190 % of control.

Regarding `CCCCCCC1NC(CCCCCC)N2C(CCCCCC)N12` (centres undefined), the T/C (dose: 100.0 mg/kg/injection, schedule: Q04DX003 (ip), vehicle: Klucel (hydroxypropylcellulose) (HPC)) was 101 % of control; the T/C (dose: 200.0 mg/kg/injection, schedule: Q04DX003 (ip), vehicle: Klucel (hydroxypropylcellulose) (HPC)) was 97 % of control; the T/C (dose: 400.0 mg/kg/injection, schedule: Q04DX003 (ip), vehicle: Klucel (hydroxypropylcellulose) (HPC)) was 93 % of control.
